In US20240199649A1 (Biosplice Therapeutics, Inc., priority 2022, published 2024):

Target: recombinant DYRK1A kinase (Homo sapiens (Human), UniProt Q13627)
Experiment: DYRK1A kinase assay (Ser/Thr 18 peptide Z-lyte FRET assay)
Assay type: biochemical
Conditions: DYRK1A 0.25 μg/mL, ATP 15 μM, Ser/Thr peptide 18 4 μM; one hour at room temperature; 11-point dose-response, duplicate
Description: Representative compounds were screened using the assay procedure for DYRK1A kinase activity as described below.
Each compound was dissolved in DMSO as a 10 mM stock and used to prepare compound source plates.
This is a non-radioactive assay using fluorescence resonance energy transfer (FRET) between coumarin and fluorescein to detect kinase activity which is represented as a ratio of coumarin emission/fluorescein emission.
The mixture was allowed to incubate with the representative compounds for one hour at room temperature. All reactions were performed in duplicate. Unphosphorylated (“0% Control”) and phosphorylated (“100% control”) forms of Ser/Thr 18 served as control reactions. Additionally, an 11-point dose-response curve of Staurosporine (1 uM top) was run to serve as a positive compound control.
After incubation, Development Reagent A was diluted in Development Buffer then added to the reaction and allowed to further incubate for one hour at room temperature.
Dose-response curves were generated, and inhibitory concentration (IC50) values were calculated using non-linear regression curve fit in the Dotmatics' Studies Software (Bishops Stortford, UK).

| IC50 [nM] | SMILES |
| --- | --- |
| 365 | CNc1nc(N[C@@H]2CCN(C3COC3)CC2(F)F)nn2ccc(-c3ccc4ncn(CC(F)F)c4n3)c12 [Compound 351, (R)—N^2-(3,3-Difluoro-1-(oxetan-3-yl)piperidin-4-yl)-5-(3-(2,2-difluoroethyl)-3H-imidazo[4,5-b]pyridin-5-yl)-N^4-methylpyrrolo[2,1-f][1,2,4]triazine-2,4-diamine] |
| 4.2 | CNc1nc(N[C@H]2C[C@H](C(C)(C)O)C2)nn2ccc(-c3ccc4nc(C)n(CC(F)F)c4n3)c12 [Compound 355, 2-(trans-3-((5-(3-(2,2-Difluoroethyl)-2-methyl-3H-imidazo[4,5-b]pyridin-5-yl)-4-(methylamino)pyrrolo[2,1-f][1,2,4]triazin-2-yl)amino)cyclobutyl)propan-2-ol] |
| 2.1 | CNc1nc(N[C@H]2CN(C)CC2(F)F)nn2ccc(-c3ccc4nc(C)n(CC(F)F)c4n3)c12 [Compound 363, (S)—N^2-(4,4-Difluoro-1-methylpyrrolidin-3-yl)-5-(3-(2,2-difluoroethyl)-2-methyl-3H-imidazo[4,5-b]pyridin-5-yl)-N^4-methylpyrrolo[2,1-f][1,2,4]triazine-2,4-diamine] |
| 0.6 | CNc1nc(N[C@@H]2CN(C)CC2(F)F)nn2ccc(-c3ccc4nc(C)n(CC(F)F)c4n3)c12 [Compound 364, (R)—N^2-(4,4-Difluoro-1-methylpyrrolidin-3-yl)-5-(3-(2,2-difluoroethyl)-2-methyl-3H-imidazo[4,5-b]pyridin-5-yl)-N^4-methylpyrrolo[2,1-f][1,2,4]triazine-2,4-diamine] |
| 6.3 | CCN1C[C@H](Nc2nc(NC)c3c(-c4ccc5nc(C)n(CC(F)F)c5n4)ccn3n2)C(F)(F)C1 [Compound 365, (S)-5-(3-(2,2-Difluoroethyl)-2-methyl-3H-imidazo[4,5-b]pyridin-5-yl)-N^2-(1-ethyl-4,4-difluoropyrrolidin-3-yl)-N^4-methylpyrrolo[2,1-f][1,2,4]triazine-2,4-diamine] |
| 1.4 | CCN1C[C@@H](Nc2nc(NC)c3c(-c4ccc5nc(C)n(CC(F)F)c5n4)ccn3n2)C(F)(F)C1 [Compound 366, (R)-5-(3-(2,2-Difluoroethyl)-2-methyl-3H-imidazo[4,5-b]pyridin-5-yl)-N^2-(1-ethyl-4,4-difluoropyrrolidin-3-yl)-N^4-methylpyrrolo[2,1-f][1,2,4]triazine-2,4-diamine] |
| 6.4 | CNc1nc(N[C@H]2CN(C3COC3)CC2(F)F)nn2ccc(-c3ccc4nc(C)n(CC(F)F)c4n3)c12 [Compound 367, (S)—N^2-(4,4-difluoro-1-(oxetan-3-yl)pyrrolidin-3-yl)-5-(3-(2,2-difluoroethyl)-2-methyl-3H-imidazo[4,5-b]pyridin-5-yl)-N^4-methylpyrrolo[2,1-f][1,2,4]triazine-2,4-diamine] |
| 1.2 | CNc1nc(N[C@@H]2CN(C3COC3)CC2(F)F)nn2ccc(-c3ccc4nc(C)n(CC(F)F)c4n3)c12 [Compound 368, (R)—N^2-(4,4-Difluoro-1-(oxetan-3-yl)pyrrolidin-3-yl)-5-(3-(2,2-difluoroethyl)-2-methyl-3H-imidazo[4,5-b]pyridin-5-yl)-N^4-methylpyrrolo[2,1-f][1,2,4]triazine-2,4-diamine] |
| 2.9 | CNc1nc(NC2CCN(CCF)CC2)nn2ccc(-c3ccc4nc(C)n(CC(F)F)c4n3)c12 [Compound 369, 5-(3-(2,2-Difluoroethyl)-2-methyl-3H-imidazo[4,5-b]pyridin-5-yl)-N^2-(1-(2-fluoroethyl)piperidin-4-yl)-N^4-methylpyrrolo[2,1-f][1,2,4]triazine-2,4-diamine] |
| 15.5 | CNc1nc(NC2CCN(CC(F)(F)F)CC2)nn2ccc(-c3ccc4nc(C)n(CC(F)F)c4n3)c12 [Compound 370, 5-(3-(2,2-Difluoroethyl)-2-methyl-3H-imidazo[4,5-b]pyridin-5-yl)-N^4-methyl-N^2-(1-(2,2,2-trifluoroethyl)piperidin-4-yl)pyrrolo[2,1-f][1,2,4]triazine-2,4-diamine] |
